Values quoted from earlier work, collected in patent US20090155388A1, “WEIGHT PHYTO-NUTRACEUTICAL SYNERGISTIC COMPOSITION” (priority 2006, published 2009).

What was measured:
[1] = tested on: bacterial resistance mechanism (multidrug pump); details: in vitro
[2] = in vivo
[3] = 89 mildly overweight women
lipoprotein lipase (LPL) = details: vanadate-stimulated
[4] = third ventricle (i.c.v.) administration
[5] = female mice
[6] = 36 obese patients, maintenance period
[7] = 10 studies
[8] = tested on: FAS (fatty acid synthase)

Compound: COc1cc([C@H]2Oc3cc(-c4cc(=O)c5c(O)cc(O)cc5o4)cc(OC)c3O[C@@H]2CO)ccc1O (racemic) [5′-methoxyhydnocarpin (5′-MHC), 5′-methoxyhydnocarpin]
- potentiation of activity of berberine alkaloids [1]: strongly potentiated

Compound: O=C(O)CC(O)(C(=O)O)C(O)C(=O)O (single isomer, unassigned; (-)) [(−)-Hydroxycitric acid (HCA), (−)-Hydroxycitric acid]
- body weight, feed consumption, adverse effects [2]: significant decrease in body weight and reduction in feed consumption without any adverse effects
- reduction of body weight [3]: significantly greater reduction of body weight

Compound: C[C@@H]1O[C@@H](O[C@H]2C(=O)c3c(O)cc(O)cc3O[C@@H]2c2ccc(O)c(O)c2)[C@H](O)[C@H](O)[C@H]1O [Astilbin, astilbin]
- release of LPL activity (lipoprotein lipase (LPL)): enhanced the release of lipoprotein lipase (LPL) activity

Compound: C/C=C(\C)C(=O)O[C@@H]1C[C@H]2[C@@H](CC=C3C[C@@H](O[C@H]4C[C@H](OC)[C@H](O[C@H]5C[C@H](OC)[C@H](O[C@@H]6O[C@H](C)[C@@H](O)[C@H](OC)[C@H]6O)[C@@H](C)O5)[C@@H](C)O4)CC[C@@]32C)[C@@]2(O)CC[C@H](C(C)=O)[C@@]12C [P57AS3]
- reduction of subsequent 24-h food intake [4]: 40-60%
- increase of ATP content (hypothalamic neurons): 50-150%

Compound: CNCCC(Oc1ccc(C(F)(F)F)cc1)c1ccccc1 (stereo not drawn) [fluoxetine]
- hyperphagic effect of 5-HT depletor, 5-HT1A agonist, 5-HT antagonist and glucose antimetabolite [5]: significantly antagonized

Compound: Chromium picolinate
- lean body mass [6]: able to increase lean body mass
- effect on reducing body weight compared with placebo [7]: relatively small effect
- insulin sensitivity (37 patients, with sulfonylurea agents): significantly improves insulin sensitivity
- body weight gain and visceral fat accumulation (compared with placebo): significantly attenuated body weight gain and visceral fat accumulation

Compound: catechin gallate [(−)-CG]
- inhibition of FAS [8]: very potent inhibitor of FAS
